Reference: ChEMBL document CHEMBL3632561, “Probing the structural requirements of non-electrophilic naphthalene-based Nrf2 activators” (Eur J Med Chem, 2015)
Active and inactive are the calls of the source. No cut-off for these calls is given here.

Tests used:
Assay type in all cases: cell-based
[1] = target: T1, Nuclear factor erythroid 2-related factor 2 (Mus musculus) (UniProt Q60795); assay: Activation of NRF2 in mouse MLE12 cells assessed as induction of NQO1 expression at 10 uM incubated for 6 hrs by immunoblot assay
T1 sequence (whole entry): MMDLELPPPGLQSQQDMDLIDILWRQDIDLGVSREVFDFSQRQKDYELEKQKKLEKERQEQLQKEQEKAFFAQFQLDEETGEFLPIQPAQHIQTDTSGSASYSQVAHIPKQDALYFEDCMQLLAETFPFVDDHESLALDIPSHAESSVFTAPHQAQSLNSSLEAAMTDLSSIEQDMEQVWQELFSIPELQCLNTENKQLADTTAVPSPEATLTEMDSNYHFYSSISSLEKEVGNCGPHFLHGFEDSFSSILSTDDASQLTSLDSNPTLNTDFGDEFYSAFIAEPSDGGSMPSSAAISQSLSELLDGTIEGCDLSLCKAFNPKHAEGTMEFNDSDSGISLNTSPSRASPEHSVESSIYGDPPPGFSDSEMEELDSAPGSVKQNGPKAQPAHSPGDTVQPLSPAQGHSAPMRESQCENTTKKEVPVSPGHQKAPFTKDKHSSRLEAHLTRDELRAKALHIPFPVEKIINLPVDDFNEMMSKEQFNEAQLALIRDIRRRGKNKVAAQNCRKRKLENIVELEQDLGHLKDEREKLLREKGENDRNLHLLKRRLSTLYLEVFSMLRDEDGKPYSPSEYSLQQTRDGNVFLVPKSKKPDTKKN

[2] = target: T1, Nuclear factor erythroid 2-related factor 2 (Mus musculus); assay: Activation of NRF2 in mouse MLE12 cells assessed as induction of HMOX1 expression at 10 uM incubated for 6 hrs by immunoblot assay
[3] = target: T1, Nuclear factor erythroid 2-related factor 2 (Mus musculus); assay: Activation of NRF2 in mouse MLE12 cells assessed as increase in NRF2 level at 10 uM incubated for 6 hrs by immunoblot assay

Activity [1]	Activity [2]	Activity [3]	Structure (SMILES)
inactive	inactive	–	COc1ccc(S(=O)(=O)Nc2ccc(N(CC(=O)O)S(=O)(=O)c3ccc(OC)cc3)c3ccccc23)cc1
–	Active	Active	CCOC(=O)CN(c1ccc(NS(=O)(=O)c2ccc(OC)cc2)c2ccccc12)S(=O)(=O)c1ccc(OC)cc1
–	Active	Active	COc1ccc(S(=O)(=O)Nc2ccc(NS(=O)(=O)c3ccc(OC)cc3)c3ccccc23)cc1
–	Active	Active	COc1ccc(S(=O)(=O)N(CC(=O)O)c2ccc(N(CC(=O)O)S(=O)(=O)c3ccc(OC)cc3)c3ccccc23)cc1
